Measurements published in patent US9175028B2, “Glycoside compound” (AJINOMOTO CO., INC., priority 2010, dated 2015).
Entries after “also recorded” stand apart in the source; their conditions may differ.

Tests used:
[1] = system: human colorectal cancer-derived cell line NCI-H716; assay: GLP-1 secretion, GLP-1 concentration in supernatant by ELISA; assay type: cell-based; conditions: for GLP-1 concentration in the supernatant compared to the DMSO treatment (control) group: 60 minutes, result in words (FIGS. 1-11); for fold induction at 100 µM / fold induction at 300 µM: Homo sapiens, NCI-H716, 1 h, GLP-1 concentration in supernatant against control group (0.1% DMSO) as 1, 60 minutes
Protocol: Subcultured human colorectal cancer-derived cell line NCI-H716 (ATCC) was plated on a poly-D-lysine coated 96-well plate at 1×10^5 cells per well. After culture at 37° C., 5% CO2 for 48 hours, the medium was substituted with a buffer (146 mM NaCl, 5 mM KCl, 1 mM MgSO4, 5.5 mM Glucose, 20 mM HEPES, 1.5 mM CaCl2, 0.2% BSA, pH 7.4), and dihydrocapsiate (DCT), dihydrocapsiate glycoside and structural analogs thereof (compounds 4, 12, 47, 27, 20, 18, 16, 30, 32, 32-3, 34, 35, 36, 24-2, 33, 14, 22, 23 and 24), each prepared to a given concentration with dimethyl sulfoxide (DMSO), were added. After treatment at 37° C., 5% CO2 for 60 minutes, the supernatant was recovered, and the concentration of GLP-1 in the supernatant was measured by the ELISA method. The strength of the activity of each compound is expressed against GLP-1 concentration of the control group (0.1% DMSO treatment group) as 1, and the compound showing higher GLP-1 concentration than the control group was evaluated as active.

[2] = system: human colorectal cancer-derived cell line NCI-H716; assay: as above; assay type: cell-based; conditions: result in words (FIG. 2)
[3] = system: C57BL/6J mice; assay: food ingestion calories of mice fed test diets for 56 days; assay type: in vivo; conditions: 0.459% (w/w) in high-fat diet, mouse, compared to normal diet, high-fat diet alone or high-fat diet added with DCT, result in words, listed as glycoside DCT
Protocol: Glycoside DCT was added at a proportion of 0.459% (w/w) to AIN-93 composition diet containing 30% lard (to be abbreviated as glycoside DCT diet or glycoside diet), and fed to mouse. […] As a control, AIN-93 composition diet containing 7% lard (to be abbreviated as normal diet), AIN-93 composition diet containing 30% lard (to be abbreviated as high-fat diet), and high-fat diet containing 0.3% (w/w) dihydrocapsiate (DCT) (to be abbreviated as DCT diet) were fed to the mouse.
The details of the test method are shown below. 7-week-old male C57BL/6J mice (n=46) (Charles River Laboratories) were acclimated for 2 weeks, divided into 4 groups such that they have the same average body weight, and each group was allowed to freely ingest a food having the composition shown in Table 2 for 56 days. The body weight and the food ingestion amount were measured every 3-4 days.

Compound	GLP-1 concentration in the supernatant compared to the DMSO treatment (control) group [1]	fold induction at 100 µM [1]	fold induction at 300 µM [1]	GLP-1 concentration compared to the group treated with equimolar concentration of glucose or cellobiose [2]	total ingested calories during the test period [3]
COc1cc(CO)ccc1O[C@@H]1O[C@H](CO)[C@@H](O[C@@H]2O[C@H](CO)[C@@H](O)[C@H](O)[C@H]2O)[C@H](O)[C@H]1O [compound 14, 4-(β-D-glucopyranosyl-(1→4)-β-D-glucopyranosyloxy)-3-methoxybenzyl alcohol]	increased	1.07	1.12		
COc1cc(CC(=O)OCCCCCCCC(C)C)ccc1OC1OC(CO)C(OC2OC(CO)C(O)C(O)C2O)C(O)C1O [compound 22, O-8-methylnonyl-2-[4-(β-D-glucopyranosyl-(1→4)-β-D-glucopyranosyloxy)-3-methoxyphenyl]acetic acid ester]	increased	1.87	1.66		
COc1cc(CNC(=O)CCCCCCC(C)C)ccc1O[C@@H]1O[C@H](CO)[C@@H](O)[C@H](O)[C@H]1O [compound 47, N-[4-(β-D-glucopyranosyloxy)-3-methoxybenzyl]-8-methylnonanamide, reference compound]	did not show GLP-1 secretion promoting activity	0.61	0.78		
COc1cc(CCC(=O)OCCCCCCCC(C)C)ccc1OC1OC(CO)C(O)C(O)C1O [compound 30, O-8-methylnonyl-3-[4-(β-D-glucopyranosyloxy)-3-methoxyphenyl]propionic acid ester]	increased	0.93	2.6		
COc1cc(CNC(=O)CCCCCCC(C)C)ccc1O[C@@H]1O[C@H](CO)[C@@H](O[C@@H]2O[C@H](CO)[C@@H](O)[C@H](O)[C@H]2O)[C@H](O)[C@H]1O [compound 27, N-[4-(β-D-glucopyranosyl-(1→4)-β-D-glucopyranosyloxy)-3-methoxybenzyl]-8-methylnonanamide, reference compound]	did not show GLP-1 secretion promoting activity	0.66	0.71		
COc1cc(COC(=O)CCCCCC(C)C)ccc1OC1OC(CO)C(OC2OC(CO)C(O)C(O)C2O)C(O)C1O [compound 36, O-[4-(β-D-glucopyranosyl-(1→4)-β-D-glucopyranosyloxy)-3-methoxybenzyl]-7-methyloctanoic acid ester]	increased	1.19	2.41		
COc1cc(CCOC(=O)CCCCCCC(C)C)ccc1OC1OC(CO)C(OC2OC(CO)C(O)C(O)C2O)C(O)C1O [compound 23, O-[4-(β-D-glucopyranosyl-(1→4)-β-D-glucopyranosyloxy)-3-methoxyphenethyl]-8-methylnonanoic acid ester]	increased	1.37	10.3		
COc1cccc(COC(=O)CCCCCCC(C)C)c1OC1OC(CO)C(OC2OC(CO)C(O)C(O)C2O)C(O)C1O [compound 24, O-[2-(β-D-glucopyranosyl-(1→4)-β-D-glucopyranosyloxy)-3-methoxybenzyl]-8-methylnonanoic acid ester]	increased	1.33	9.5		
COc1cc(CCC(=O)OCCCCCCCC(C)C)ccc1OC1OC(CO)C(OC2OC(CO)C(O)C(O)C2O)C(O)C1O [compound 32, O-8-methylnonyl-3-[4-(β-D-glucopyranosyl-(1→4)-β-D-glucopyranosyloxy)-3-methoxyphenyl]propionic acid ester]	increased	1.24	3.46		
COc1cccc(COC(=O)CCCCCCC(C)C)c1OC1OC(COC(C)=O)C(OC2OC(COC(C)=O)C(OC(C)=O)C(OC(C)=O)C2OC(C)=O)C(OC(C)=O)C1OC(C)=O (centres unmarked) [compound 24-2]	increased	0.87	1.15		
COc1cc(COC(=O)CCCC/C=C/C(C)C)ccc1OC1OC(CO)C(OC2OC(CO)C(O)C(O)C2O)C(O)C1O [compound 35, O-[4-(β-D-glucopyranosyl-(1→4)-β-D-glucopyranosyloxy)-3-methoxybenzyl]-8-methyl-6-nonenoic acid ester]	increased	1.14	2.4		
COc1cc(COC(=O)CCCC/C=C/C(C)C)ccc1OC1OC(CO)C(O)C(O)C1O [compound 20, O-[4-(β-D-glucopyranosyloxy)-3-methoxybenzyl]-8-methyl-6-nonenoic acid ester]	increased	1.13	1.56		
COc1cc(COC(=O)CCCCCC(C)C)ccc1OC1OC(CO)C(O)C(O)C1O [compound 18, O-[4-(β-D-glucopyranosyloxy)-3-methoxybenzyl]-7-methyloctanoic acid ester]	increased	1.33	1.85		
COc1ccc(COC(=O)CCCCCCC(C)C)cc1OC1OC(CO)C(O)C(O)C1O [compound 34, O-[3-(β-D-glucopyranosyloxy)-4-methoxybenzyl]-8-methylnonanoic acid ester]	increased	1.29	1.94		
CCCCCCCCCC(=O)OCc1ccc(OC2OC(CO)C(O)C(O)C2O)c(OC)c1 [compound 16, O-[4-(β-D-glucopyranosyloxy)-3-methoxybenzyl]-decanoic acid ester]	increased	1.23	3.25		
COc1cc(COC(=O)CCCCCCC(C)C)ccc1O [DCT, dihydrocapsiate, reference compound]	did not show a similar change				
COc1cc(COC(=O)CCCCCCC(C)C)ccc1OC1OC(CO)C(OC2OC(CO)C(O)C(O)C2O)C(O)C1O [compound 12, O-[4-(β-D-glucopyranosyl-(1→4)-β-D-glucopyranosyloxy)-3-methoxybenzyl]-8-methylnonanoic acid ester]	increased in a compound concentration-dependent manner	5.02		markedly high	
COc1cc(COC(=O)CCCCCCC(C)C)ccc1OC1OC(CO)C(O)C(O)C1O [compound 4, O-[4-(β-D-glucopyranosyloxy)-3-methoxybenzyl]-8-methylnonanoic acid ester]	increased in a compound concentration-dependent manner	2.3		markedly high	suppress food ingestion calories; also recorded: significant decrease
